In brackets after ≈: the same amount, converted by molar mass. Like-named read-outs stand apart in the source and are kept apart here.
Experiments:
Pseudomonas aeruginosa = test: In vitro antibacterial activity, agar dilution MIC (Experiment 1); type: cell-based
Description: Tested strains: all the clinically separated strains below were purchased from public facilities.
Escherichia coli ATCC25922, Pseudomonas aeruginosa ATCC27853, Klebsiella pneumoniae ATCC700603, and the like.
Tested Samples: Imipenem, Ceftazidime: Commercial Products, the Following Experiments were Carried Out According to the Content of an Effective Ingredient in Each Commercial Product;
The compounds of the present invention, their chemical names, and preparation methods are shown in the preparation example of each compound.
Experiment method: Agar dilution method, refer to National Committee for Clinical Laboratory Standards. 2006. Methods for Dilution Antimicrobial Susceptibility Tests for Bacteria That Grow Aerobically; Approved Standard—Seventh Edition M7-A7, Vol 26, No. 2, 2006, to determine the MIC of the compound. MIC represents the minimum inhibitory concentration.

[1] = Pharmacokinetics (PK) determination in SD rats (Experiment 4); type: in vivo; settings: plasma; for AUC(0-t) / AUC(0-inf): Sprague-Dawley (SD), rat, iv; for AUC(0-inf): read-out: AUCINF_obs
Description: The compound of the present invention, self-prepared and dissolved in a suitable solvent.
Instrument and equipment: API4000 LC-MS/MS
Chromatographic column: Waters XBridge C18(2.1×50 mm, […])
Rat blood collection: Animals were fixed. The animal's tail was heated with a water bathtub 10 minutes before each time point. About 200 μL of the blood was collected through the caudal vein. After the blood collection, the blood was placed in an anticoagulation tube containing heparin sodium. The blood samples were centrifuged at 8000 rpm for 6 minutes at 4° C. to obtain plasma samples. The plasma must be prepared within 30 minutes after the blood collection. The plasma was stored in a refrigerator at −80° C. before the test.
(1) Test samples were removed from the refrigerator (−80° C.), naturally thawed at room temperature, and then vortexed for 5 minutes;
(2) 20 μL sample was precisely pipetted to a 1.5 mL centrifuge tube;
(3) 200 μL of the internal standard solution was added;
(4) The mixture was vortexed for 5 minutes and centrifuged for 5 minutes (12000 revolutions per minute);
(5) 100 μL of the supernate was precisely pipetted, 100 μL of water was added, the mixture was vortexed for 5 minutes, and the sample was sent to LC-MS/MS for analysis.
The results of the concentrations of the test samples (plasma samples) were output with Analyst 1.6.1 of AB Corporation. The meaning value, the standard deviation, the coefficient of variation, and other parameters (not necessary to calculate the parameter that can be directly output from Analyst 1.6.1) were calculated with Microsoft Excel, and the PK parameter is calculated with Pharsight Phoenix 6.1 software.

[2] = agar dilution (Table 3), read-out: MIC50
[3] = agar dilution (Table 3), read-out: MIC90

In the case of `CC(O)C(NC(=O)c1ccc(/C=C/C=C/c2ccco2)cc1)C(=O)NO` (racemic) [Compound 25], the MIC50 (Pseudomonas aeruginosa; [2]) is reported as 1 mg/L (≈ 2.81 µM) and the MIC90 (Pseudomonas aeruginosa; [3]) is reported as > 16 mg/L.

With `CC(C)(O/N=C(\C(=O)N[C@@H]1C(=O)N2C(C(=O)[O-])=C(C[n+]3ccccc3)CS[C@H]12)c1csc(N)n1)C(=O)O` [Ceftazidime, reference compound] the MIC50 (Pseudomonas aeruginosa; [2]) was 2 mg/L (≈ 3.66 µM) and the MIC90 (Pseudomonas aeruginosa; [3]) was > 16 mg/L.

In the case of `C[C@@H](O)[C@H](NC(=O)c1ccc(/C=C/C=C/c2ccco2)cc1)C(=O)NO` [Compound 1, 4-((1E,3E)-4-(furan-2-yl)buta-1,3-dienyl)-N-((2S,3R)-3-hydroxy-1-(hydroxyamino)-1-oxobutan-2-yl)benzamide], the MIC50 (Pseudomonas aeruginosa; [2]) is reported as 1 mg/L (≈ 2.81 µM) and the MIC90 (Pseudomonas aeruginosa; [3]) is reported as > 16 mg/L.

Work on `C[C@@H](O)[C@H](NC(=O)c1ccc(/C=C/C=C/c2ccc(CO)o2)cc1)C(=O)NO` [Compound 3, N-((2S,3R)-3-hydroxy-1-(hydroxamino)-1-oxobutan-2-yl)-4-((1E,3E)-4-(5-(hydroxymethyl)furan-2-yl)buta-1,3-dienyl)benzamide] yielded an MIC50 (Pseudomonas aeruginosa; [2]) of 2 mg/L (≈ 5.18 µM) and an MIC90 (Pseudomonas aeruginosa; [3]) of 16 mg/L (≈ 41.4 µM).

Compound `C[C@H](O)[C@H](NC(=O)c1ccc(C#CC#Cc2ccc(CO)o2)cc1)C(=O)NO` [Compound 10, N-((2S,3S)-3-hydroxy-1-(hydroxyamino)-1-oxobutan-2-yl)-4-((5-(hydroxymethyl)furan-2-yl)buta-1,3-diynyl)benzamide] has an MIC50 (Pseudomonas aeruginosa; agar dilution (Table 3)) of 0.125 mg/L (≈ 0.327 µM), an MIC90 (Pseudomonas aeruginosa; agar dilution (Table 3)) of 1 mg/L (≈ 2.62 µM) and an AUCINF_obs ([1]; IV 2 mg/kg, 2 mg/kg) of 4.902 ± 0.532 µg·h/mL. It also gave an AUClast ([1]; IV 2 mg/kg, 2 mg/kg) of 4.891 ± 0.533 µg·h/mL, a Cl_obs ([1]; IV 2 mg/kg, 2 mg/kg) of 1.03 ± 0.11 L/h/kg and a Vz_obs ([1]; IV 2 mg/kg, 2 mg/kg) of 1.03 ± 0.11 L/kg. The t1/2z ([1]; IV 2 mg/kg, 2 mg/kg) was 44.4 ± 9.6 min and the λ_z ([1]; IV 2 mg/kg, 2 mg/kg) was 0.97 ± 0.23 h⁻¹.

Compound `C[C@@H](O)[C@H](NC(=O)c1ccc(C#CC#Cc2ccc(CNCCCN)o2)cc1)C(=O)NO` [Compound 12, 4-((5-((3-aminopropylamino)methyl)furan-2-yl)buta-1,3-diynyl)-N-((2S,3R)-3-hydroxy-1-(hydroxyamino)-1-oxobutan-2-yl)benzamide] has an MIC50 (Pseudomonas aeruginosa; [2]) of 2 mg/L (≈ 4.56 µM) and an MIC90 (Pseudomonas aeruginosa; [3]) of 4 mg/L (≈ 9.12 µM).

Compound `C[C@@H](O)[C@H](NC(=O)c1ccc(C#CC#Cc2ccc(CN3CCN(C)CC3)o2)cc1)C(=O)NO` [Compound 13, N-((2S,3R)-3-hydroxy-1-(hydroxyamino)-1-oxobutan-2-yl)-4-((5-((4-methylpiperazin-1-yl)methyl)furan-2-yl)buta-1,3-diynyl)benzamide] has an MIC50 (Pseudomonas aeruginosa; [2]) of 2 mg/L (≈ 4.31 µM), an MIC90 (Pseudomonas aeruginosa; [3]) of 8 mg/L (≈ 17.2 µM) and a Cl_obs ([1]; IV 2 mg/kg) of 4.14 ± 0.70 L/h/kg. The Vz_obs ([1]; IV 2 mg/kg) was 2.09 ± 0.39 L/kg, the t1/2z ([1]; IV 2 mg/kg) was 21 ± 0.6 min and the λ_z ([1]; IV 2 mg/kg) was 1.98 ± 0.04 h⁻¹. It also gave an AUC(0-t) ([1]; 2 mg/kg) of 0.485 ± 0.0874 µg·h/mL and an AUC(0-inf) ([1]; 2 mg/kg) of 0.493 ± 0.0879 µg·h/mL.

With `C[C@@H](O)[C@H](NC(=O)c1ccc(C#CC#Cc2oc(CO)cc2-c2ccccc2)cc1)C(=O)NO` [Compound 17, N-((2S,3R)-3-hydroxy-1-(hydroxyamino)-1-oxobutan-2-yl)-4-((5-(hydroxymethyl)-3-phenylfuran-2-yl)buta-1,3-diynyl)benzamide] the MIC50 (Pseudomonas aeruginosa; [2]) was 8 mg/L (≈ 17.4 µM) and the MIC90 (Pseudomonas aeruginosa; [3]) was > 16 mg/L.

For `C[C@@H](O)[C@H](NC(=O)c1ccc(C#CC#Cc2ccc(CN3CCNCC3)o2)cc1)C(=O)NO` [Compound 24, N-((2S,3R)-3-hydroxy-1-(hydroxyamino)-1-oxobutan-2-yl)-4-((5-(piperazin-1-ylmethyl)furan-2-yl)buta-1,3-diynyl)benzamide], the MIC50 (Pseudomonas aeruginosa; [2]) was 4 mg/L (≈ 8.88 µM) and the MIC90 (Pseudomonas aeruginosa; [3]) was > 16 mg/L.

Compound `C[C@@H](O)[C@H](NC(=O)c1ccc(C(=O)N/N=C/c2ccco2)cc1)C(=O)NO` [Compound 26, 4-(2-(furan-2-methylene)hydrazinecarbonyl)-N-((2S,3R)-3-hydroxy-1-(hydroxyamino)-1-oxobutan-2-yl)-benzamide] has an MIC90 (Pseudomonas aeruginosa; [3]) of 4 mg/L (≈ 10.7 µM).

Compound `C[C@@H](O)[C@H](NC(=O)c1ccc(C#CC#Cc2ccc(C(N)=O)o2)cc1)C(=O)NO` [Compound 27] has an MIC90 (Pseudomonas aeruginosa; [3]) of 4 mg/L (≈ 10.1 µM).

For `C[C@@H](O)[C@H](NC(=O)c1ccc(C#CC#Cc2ccc(C(=O)N(C)C)o2)cc1)C(=O)NO` [Compound 29], the MIC50 (Pseudomonas aeruginosa; [2]) was 1 mg/L (≈ 2.36 µM) and the MIC90 (Pseudomonas aeruginosa; [3]) was 4 mg/L (≈ 9.45 µM).

`C[C@@H](O)[C@H](NC(=O)c1ccc(/C=C/C=C/c2ccc(CO)o2)nc1)C(=O)NO` [Compound 32] showed a Cl_obs ([1]; IV 2 mg/kg) of 5.80 ± 0.53 L/h/kg, a Vz_obs ([1]; IV 2 mg/kg) of 4.24 ± 1.65 L/kg and a t1/2z ([1]; IV 2 mg/kg) of 30.4 ± 10.8 min. For the same compound, the λ_z ([1]; IV 2 mg/kg) was 1.48 ± 0.46 h⁻¹, the AUC(0-t) ([1]; 2 mg/kg) was 0.344 ± 0.0337 µg·h/mL and the AUC(0-inf) ([1]; 2 mg/kg) was 0.347 ± 0.0327 µg·h/mL.

With `C[C@@H](O)[C@H](NC(=O)c1ccc(C#CC#Cc2ccnn2C)cc1)C(=O)NO` [Compound 34, N-((2S,3R)-3-hydroxy-1-(hydroxamino)-1-oxobutan-2-yl)-4-((1-methyl-1H-pyrazol-5-yl)buta-1,3-diynyl)benzamide] the MIC50 (Pseudomonas aeruginosa; [2]) was 4 mg/L (≈ 10.9 µM) and the MIC90 (Pseudomonas aeruginosa; [3]) was > 16 mg/L.

Work on `Cn1nccc1-c1ccc(C#Cc2ccc(C(=O)N[C@H](C(=O)NO)C(C)(C)N)cc2)cc1` [Compound 35, (S)—N-(3-amino-1-(hydroxyamino)-3-methyl-1-oxobutan-2-yl)-4-((4-(1-methyl-1H-pyrazol-5-yl)phenyl)ethynyl)benzamide] yielded an MIC50 (Pseudomonas aeruginosa) of 2 mg/L (≈ 4.64 µM) and an MIC90 (Pseudomonas aeruginosa) of 16 mg/L (≈ 37.1 µM).

For `C[C@@H](O)[C@H](NC(=O)c1ccc(C#Cc2ccc(-c3ccnn3C)cc2)cc1)C(=O)NO` [Compound 36, N-((2S,3R)-3-hydroxy-1-(hydroxyamino)-1-oxobutan-2-yl)-4-((4-(1-methyl-1H-pyrazol-5-yl)phenyl)ethynyl)benzamide], the MIC50 (Pseudomonas aeruginosa; [2]) was 2 mg/L (≈ 4.78 µM) and the MIC90 (Pseudomonas aeruginosa; [3]) was > 16 mg/L.

`Cn1nccc1-c1ccc(C#Cc2ccc(-c3ccn(CCC(C)(C(=O)NO)S(C)(=O)=O)c(=O)c3)cc2)cc1` (centres unmarked) [Compound 38, N-hydroxy-2-methyl-4-(4-(4-((4-(1-methyl-1H-pyrazol-5-yl)phenyl)ethynyl)phenyl)-2-oxopyridin-1(2H)-yl)-2-(methylsulfonyl)butanamide] showed a Cl_obs ([1]; IV 2 mg/kg) of 1.01 ± 0.09 L/h/kg, a Vz_obs ([1]; IV 2 mg/kg) of 1.81 ± 0.17 L/kg and a t1/2z ([1]; IV 2 mg/kg) of 75 ± 5.4 min. The λ_z ([1]; IV 2 mg/kg) was 0.56 ± 0.04 h⁻¹, the AUC(0-t) ([1]; 2 mg/kg) was 1.95 ± 0.168 µg·h/mL and the AUC(0-inf) ([1]; 2 mg/kg) was 1.99 ± 0.176 µg·h/mL.

With `C[C@@H](O)[C@H](NC(=O)c1ccc(C#Cc2ccc(-c3ccnn3C)nc2)cc1)C(=O)NO` [Compound 40, N-((2S,3R)-3-hydroxy-1-(hydroxyamino)-1-oxobutan-2-yl)-4-((6-(1-methyl-1H-pyrazol-5-yl)pyridin-3-yl)ethynyl)benzamide] the MIC50 (Pseudomonas aeruginosa; [2]) was 2 mg/L (≈ 4.77 µM) and the MIC90 (Pseudomonas aeruginosa; [3]) was 1 mg/L (≈ 2.38 µM).

Work on `CC(CCn1ccc(-c2ccc(C#Cc3ccc(CN4CCOCC4)o3)cc2)cc1=O)(C(=O)NO)S(C)(=O)=O` (centres unmarked) [Compound 45, N-hydroxy-2-methyl-2-(methylsulfonyl)-4-(4-(4-((5-(morpholinomethyl)furan-2-yl)ethynyl)phenyl)-2-oxopyridin-1(2H)-yl)butanamide] yielded an MIC50 (Pseudomonas aeruginosa; [2]) of 4 mg/L (≈ 7.22 µM).

For `C[C@@](CCn1ccc(-c2ccc(C#Cc3ccc(CO)o3)cc2)cc1=O)(C(=O)NO)S(C)(=O)=O` [Compound 46], the MIC50 (Pseudomonas aeruginosa; [2]) was 1 mg/L (≈ 2.06 µM) and the MIC90 (Pseudomonas aeruginosa; [3]) was 8 mg/L (≈ 16.5 µM).

For `CC(CCn1ccc(-c2ccc(C#CC#Cc3ccc(CO)o3)cc2)cc1=O)(C(=O)NO)S(C)(=O)=O` (centres unmarked) [Compound 47], the MIC50 (Pseudomonas aeruginosa; [2]) was 4 mg/L (≈ 7.87 µM) and the MIC90 (Pseudomonas aeruginosa; [3]) was > 16 mg/L.

`COCc1ccc(C#Cc2ccc(-c3ccn(CCC(C)(C(=O)NO)S(C)(=O)=O)c(=O)c3)cc2)o1` (centres unmarked) [Compound 48] showed an MIC50 (Pseudomonas aeruginosa; [2]) of 2 mg/L (≈ 4.01 µM).

Work on “N-((2S,3R)-3-hydroxy-1-(hydroxyamino)-1-oxobutan-2-yl)-4-((5-((2-(2-hydroxyethoxy)ethylamino)methyl)furan-2-yl)buta-1,3-diynyl)benzamide [Compound 19]” yielded an MIC50 (Pseudomonas aeruginosa; agar dilution (Table 3)) of 2 mg/L and an MIC90 (Pseudomonas aeruginosa; agar dilution (Table 3)) of 8 mg/L.
